# Columns and labels:
# [1] = tested on: psoriasis and various cutaneous malignancies; conditions: cited from earlier work
# [2] = tested on: cultured normal keratinocytes; conditions: in vitro; cited from earlier work
# human skin [3] = assay: in vitro
# Protocol: (§1) These were minced by scissors and then sonicated for 30 seconds in 100 μL of (0.4 m) HClO4 containing 10 mM internal standard GABA. To this mixture, 100 μL of water was added and the contents were then centrifuged at 10,000×G for 3 min. A 10 μL aliquot of supernatant was added to 40 μL of sodium tetraborate solution (pH 9.3) and mixed with […] the derivatizing agent 6-aminoquinolyi-N-hydroxysuccinimidyl carbamate. This mixture was then heated for 10 min. at 50° C. and a 20 μL aliquot was injected into the HPLC.
# in vitro = conditions: skin, topical or ocular
# Protocol: as §1
# mouse skin [4] = assay: α-DFMO content of mouse skin samples; conditions: 10% α-DFMO in Vanicream, 37° C.
# Protocol: as §1
# [5] = in vivo
# Excerpt: (§2) Forty-eight participants with severe actinic keratoses (AKs) on their forearms (i.e. at least ten well circumscribed lesions nonlateral, sun-exposed surfaces) completed a one month run-in on placebo ointment applied twice daily to the affected areas. […] After six months of treatment, all measurements were repeated. […] The study was described at the thirty-second annual meeting of the American Society of Clinical Oncology on May 18-21, 1996.
# UVB induced skin cancer = conditions: cited from earlier work
# mouse epidermis = conditions: five percent solution, in vitro; cited from earlier work
# skin ODC = conditions: five of seven subjects, 6 hours after oral dosing, 0.5 g/m^2; cited from earlier work
# [6] = oral, humans; cited from earlier work
# BALB/c mice = assay: four week topical toxicity study in mice; assay type: in vivo
# Excerpt: Adult female BALB/c mice, 25-31 gm. weight, were obtained from Jackson Laboratories, Bar Harbor, Me. For toxicology tests, the mice were housed 5/cage and received standard lab chow and tap water ad libitum. A 12-hour light/dark cycle in a humidified atmosphere was utilized. Toxicology Study A cohort of 20 mice were de-haired over a 2 cm^2 dorsal area using the topical depilatory agent, Nair® Lotion (Carter Wallace, Inc., New York, N.Y.). […] The daily dose was delivered by a positive displacement pipette (Micro-Man®, Gilson Scientific, Woburn, Mass.).
# Using the murine total body surface area conversion nomogram of Freireich et al., the daily doses for the 3 cream concentrations of 1%, 5% and 10% were 71.4 mg/m^2, 357 mg/m^2, 714 mg/m^2. For the total four week period, the cumulative doses were 1.43 g/m^2, 7.14 g/m^2 and 14.28 g/m^2. […] The skin application sites were observed daily for evidence of any local toxicity (erythema, induration or ulceration) and the animals were weighed weekly. At the end of the four week treatment period, the mice were sacrificed by rapid cervical dislocation and blood samples were obtained for quantifying renal function (BUN, creatinine), hepatic function (SGOT-SGPT, bilirubin), electrolytes (Na^+ K^+ Cl^-, ^- HCO3^-), hematologic indices (WBC with differential, RBC, platelets) and glucose (Animal Diagnostic Laboratories,Tucson, Ariz.).
# total polyamines = assay: phase IIb study, total polyamines; assay type: in vivo, human; conditions: 10% (w/w) topical, six months, compared to placebo
# Excerpt: as §2
# psoriatic lesions = conditions: cited from earlier work
# [7] = solubility limit in the vehicle; assay type: physicochemical; conditions: in the particular vehicle used
# Excerpt: Having thus described the invention, it will be apparent to those of skill in the art that modifications can be made within the scope of the invention. […] Also, the vehicle cannot contain absorption enhancers.
# actinic keratoses (AKs) = assay: phase IIb study, number of actinic keratoses; assay type: in vivo, human; conditions: 10% (w/w) topical, six months, compared to placebo
# Excerpt: as §2
# [8] = chemical stability of α-DFMO in cream, HPLC; assay type: physicochemical; conditions: Vanicream, 4° C., six month time point; 262800 min
# Protocol: The reverse phase (C-18 column, Alitech Associates, 150 mm×4.6 mm, […]) assay was performed with a 30 minute gradient elution using two mobile phases (A and B) containing aqueous buffer and acetonitrile, respectively. Mobile phase A contained 100 mM sodium acetate, 15 mM triethylamine, and […] sodium EDTA dissolved in water at pH 5.0. Mobile phase B was acetonitrile UV® (Burdick & Jackson, Muskegon, Mich.). The starting proportion, A:B, was 92:8, at 18 min. it was 80:20; at 19-21 min. 40:60; and at 22-30 min. 92:8 [21]. The mobile phase was pumped at 1.2 mL/min. using a Perkin Elmer Biocompatible Binary Pump, a Hitachi AS-2000 Autosampler and a Hewlett Packard Series 1050 Solvent Programmer.
# For the stability assays, the 10% cream formulation was stored at 4° C. for up to 6 months and 10 μL aliquots were removed weekly and analyzed by HPLC after extraction using 1 mL distilled water.
# human skin [9] = tested on: human skin
# [10] = phase IIb study, α-DFMO in skin and blood
# Excerpt: as §2
# ornithine decarboxylase = conditions: time and concentration dependence, reversibility; cited from earlier work
# human skin [11] = assay: in vitro transdermal penetration, human skin (diffusion cells); conditions: 24 hours, 37° C., 10% α-DFMO
# [12] = oral, single 0.5 g/m^2 dose given daily, cited from earlier work
# mouse skin [13] = assay: in vitro transdermal penetration, mouse skin (diffusion cells); assay type: in vitro ADME, BALB/c mice
# [14] = ten percent cream with absorption enhancer, ten patients
compound,measurement,setting,value
"CC(/C=N/NC(=N)N)=N\NC(=N)N [MGBG, mitoguazone]",skin irritation,[1]; in vivo,highly irritating
same,therapeutic effects in psoriasis and various cutaneous malignancies,[1]; topically or intralesionally,produces therapeutic effects
same,proliferation of cultured normal keratinocytes,[2],decrease the proliferation
"NCCC[C@](N)(C(=O)O)C(F)F [α-DFMO, alpha-difluoromethylornithine]",intradermal levels,human skin [3],substantial intradermal levels
same,time of peak uptake into human skin,human skin [3],24 h
same,concentration,"human skin [3]; human, skin, topical or ocular",1360 µM
same,concentration at 24 h,in vitro; human,323000 ng/g
same,concentration at 4 h,in vitro; mouse,7.25e+06 ng/g
same,time of peak uptake into mouse skin,mouse skin [4],4 h
same,participants with moderately severe skin rash,[5],one
same,participants with skin rash in the area of DFMO application,[5],Four
same,systemic toxicities,[5],no systemic toxicities
same,body weight loss,UVB induced skin cancer; 1% drinking water solution,16%
same,hyperactivity,UVB induced skin cancer; 1% drinking water solution,sound-induced hyperactivity
same,UVB induced skin cancer incidence,"UVB induced skin cancer; 1% solution in drinking water, reduced from 38%",9%
same,UVB-induced immunosuppression,"UVB induced skin cancer; oral α-DFMO regimen, 1% in drinking water",prevented UVB-induced immunosuppression
same,putrescine levels,mouse epidermis,twenty-five
same,spermine and spermidine levels,mouse epidermis,not affected
same,synthesis of DNA,mouse epidermis,blocks the synthesis of DNA
same,reduction in skin ODC levels,skin ODC,≥ 50%
same,ototoxicity,[6],associated with ototoxicity
same,drug related alterations in weight gain,"BALB/c mice; mouse, in vivo",without drug related alterations in weight gain
same,hair regrowth,"BALB/c mice; mouse, in vivo",proceeded normally
same,local skin irritation,"BALB/c mice; mouse, in vivo",no evidence of local skin irritation
same,"serum enzymes, electrolytes or hematologic parameters","BALB/c mice; mouse, in vivo",no alterations
same,survival,"BALB/c mice; topical 1%, 5% or 10% cream, through the study period",survived through the study period
same,toxicity in mice (summary),BALB/c mice; topical formulation,nontoxic in mice
same,suppression of total polyamines,total polyamines,21%
same,systemic uptake,"psoriatic lesions; human, in vivo",systemic uptake in the patients
same,improvement in psoriatic lesions,psoriatic lesions; [14],marginal improvement
same,reduction of cutaneous spermine levels,psoriatic lesions; [14],sixty-six
same,solubility,[7],~220 mg/mL
same,reduction in the number of AKs,actinic keratoses (AKs),21%
same,loss of α-DFMO,[8],< 1%
same,time until transdermal human skin penetration apparent,human skin [9],> 20 h
same,α-DFMO in blood,"[10]; 10% (w/w) topical, six months",not detected in blood
same,systemic uptake,[10]; in vivo,no systemic uptake
same,treated forearms with high DFMO skin levels,[10]; in vivo,thirteen
same,inhibition of ornithine decarboxylase,ornithine decarboxylase,time and concentration dependent but is irreversible
same,degree of penetration,human skin [11],0.7 % of the applied concentration
same,plasma concentration×time product,[12],311 μm×hr
same,terminal phase half life,[12],3.5 h
same,Cmax,[12]; read-out: peak α-DFMO plasma concentrations,47.1 µM
same,uptake into and penetration through mouse skin,mouse skin [13],significant α-DFMO uptake into and penetration through mouse skin
same,degree of transdermal penetration versus azone-containing formulation,"mouse skin [13]; 10% α-DFMO in Vanicream, mice, vs 5% α-DFMO with azone",substantially less
same,calculated penetration rate,"mouse skin [13]; mouse skin, 10% α-DFMO formulation in Vanicream",3.6 μg/cm^2 /hour
same,mean percent uptake (transdermal penetration),"mouse skin [13]; mouse skin, 37° C., 24 hours, 10% α-DFMO",61.53 % of the applied dose
same,time of maximal transdermal penetration,"mouse skin [13]; mouse skin, 37° C., Vanicream",24 h
same,time of maximal penetration,"mouse skin [13]; mouse skin, hydrophilic ointment U.S.P., 37° C.",12 h

# From patent publication US5851537A (priority 1997, dated 1998)
